Results reported in patent US9173972B2, “Methods and compositions for promoting wound healing” (priority 2005, dated 2015).

Legend:
[1] = test system: surface ulcers of Koi (multiple antibiotic-resistant pathogenic species); experiment: Immersion bath treatment of Koi suffering from surface ulcers; format: in vivo, Koi (Cyprinus carpio); details: antibiotic injected directly into the fish, before the bath treatment
Description: An immersion treatment of the infected animals of 5 to 10 minutes on alternate days over a six day period promoted healing of most ulcers.
All of the treated fish had previously been given injections of Azactam, Baytril, and Amikacin. […] Among the species of bacteria found in the ulcers of the fish were representatives of the genera Aeromonas, Proteus, Klebsiella, Staphylococcus, Streptococcus, Enterobacter and Flavobacterium.
All fish were housed in a communal “hospital tank” before treatment and moved to an isolation tank after each treatment. The temperature of the bath was adjusted to that of the hospital tank temperature, 24 C, and adequate aeration was supplied to the treatment tank. Eight of the fish had external ulcers of various dimensions. Two of the fish were dropsied.

[2] = test system: Enterococcus faecalis; experiment: MIC/MBC microtiter dilution and checkerboard of EDTA-Tris and neomycin; format: cell-based
Description: (§1) This example describes a method for determining the FIC values set forth in Example 4. […] Agents and Chem. pp. 210-217 (1967); and Sparks et al., Vet. Res. Comm. 18:241-249 (1994). Each of the foregoing publications are incorporated herein by reference.
(§2) Then 0.05 ml of an 18-hour old culture of a test organism, containing […] colony-forming units (CFU) ml, were added to each well. Controls for the culture and media were included in each plate. Plates were covered and incubated at 37° C. for 18-24 hours.
(§3) To generate isobolograms, FICs of the two test solutions were plotted individually on the x-axis and y-axis to determine the effect of combining the two test solutions on bacterial growth. A line that curves away from the zero point and the coordinates indicated antagonism. […] Goodman and Gilman, pp. 1085-1086 (Macmillan Publishing Co., New York, 1985); Sabath, L. D., Antimicrob. Agents and Chem. pp. 210-217 (1967) and incorporated herein by reference in their entireties.
(§4) 307 (pub: Am. Soc. Microbiol. Williams and Wilkins, Baltimore 1970), incorporated herein by reference in its entirety.

[3] = test system: Pseudomonas aeruginosa; experiment: as above; format: cell-based
Description: as §1, §2, §3, §4

[4] = test system: Staphylococcus aureus; experiment: as above; format: cell-based
Description: as §1, §2, §3, §4

[5] = test system: Aeromonas sobria; experiment: MIC and FIC of EDTA and neomycin, Aeromonas isolated from ulcerated fish; format: cell-based; details: A. sobria; EDTA in 50 mM Tris
Description: (§5) This example describes a method for determining the FIC values set forth in Example 4. […] Agents and Chem. pp. 210-217 (1967); and Sparks et al., Vet. Res. Comm. 18:241-249 (1994). Each of the foregoing publications are incorporated herein by reference. […] Then 0.05 ml of an 18-hour old culture of a test organism, containing […] colony-forming units (CFU) ml, were added to each well. Controls for the culture and media were included in each plate. Plates were covered and incubated at 37° C. for 18-24 hours. A numerical score or Fractional Inhibitory Concentration (FIC) index was determined. The FIC index is equal to the sum of the values of FIC for the individual drugs: An FIC index greater than 1.0 indicated an antagonistic interaction, an FIC index of 1.0 indicated addition, and an FIC index of less than or equal to 0.5 indicated synergism between the two test agents.

[6] = test system: Aeromonas caviae; experiment: as above; format: cell-based; details: A. caviae; EDTA in 50 mM Tris
Description: as §5

[7] = test system: Pseudomonas aeruginosa isolated from burn patients; experiment: Antibiotic resistance profile, disc diffusion method; further: key: R = resistant; I = intermediate; S = sensitive; format: cell-based; details: P. aeruginosa
[8] = test system: Staphylococcus aureus isolated from burn patients; experiment: as above; format: cell-based; details: S. aureus; further: key: R = resistant; I = intermediate; S = sensitive
[9] = test system: Enterococcus faecalis isolated from burn patients; experiment: as above; format: cell-based; details: E. faecalis; further: key: R = resistant; I = intermediate; S = sensitive
[10] = test system: Staphylococcus aureus isolated from a human burn patient; experiment: MIC and MBC of Tris, EDTA, cocamidopropyl betaine and silver combinations; format: cell-based; details: S. aureus (human burn isolate); multiple of the 1x stock solution of the tested composition
[11] = test system: Staphylococcus intermedius; experiment: MIC and MBC, isolates from dogs with otitis externa and pyoderma; format: cell-based; details: S. intermedius; multiple of the 1x stock solution of the tested composition
Description: (§6) The formulation was tested against Pseudomonas aeruginosa, Proteus mirabilis, Escherichia coli, Staphylococcus intermedius, Malessezia pachydermatis, and Candida albicans.

[12] = test system: Candida albicans; experiment: as above; format: cell-based; details: C. albicans; multiple of the 1x stock solution of the tested composition
Description: as §6

[13] = test system: Proteus mirabilis; experiment: as above; format: cell-based; details: P. mirabilis; multiple of the 1x stock solution of the tested composition
Description: as §6

[14] = test system: Escherichia coli isolated from a dog with otitis externa; experiment: as above; format: cell-based; details: E. coli
Description: as §6

[15] = test system: Pseudomonas aeruginosa; experiment: as above; format: cell-based; details: P. aeruginosa (dog isolate); multiple of the 1x stock solution of the tested composition
Description: as §6

[16] = test system: Malassezia pachydermatis; experiment: as above; format: cell-based; details: M. pachydermatis; multiple of the 1x stock solution of the tested composition
Description: as §6

[17] = test system: Pseudomonas aeruginosa isolated from a human burn patient; experiment: MIC and MBC of Tris, EDTA, cocamidopropyl betaine and silver combinations; format: cell-based; details: P. aeruginosa (human burn isolate); multiple of the 1x stock solution of the tested composition
[18] = EDTA co-administered with neomycin in 50 mM Tris
[19] = multiple of the 1x stock solution of the tested composition
[20] = neomycin co-administered with EDTA in 50 mM Tris

Compound: NCC[C@H](O)C(=O)N[C@@H]1C[C@H](N)[C@@H](O[C@H]2O[C@H](CN)[C@@H](O)[C@H](O)[C@H]2O)[C@H](O)[C@H]1O[C@H]1O[C@H](CO)[C@@H](O)[C@H](N)[C@H]1O [Amikacin]
- healing of visible ulcers [1]: failed to heal visible ulcers

Compound: C[C@H]1[C@H](NC(=O)/C(=N\OC(C)(C)C(=O)O)c2csc(N)n2)C(=O)N1S(=O)(=O)O [Azactam]
- healing of visible ulcers [1]: failed to heal visible ulcers

Compound: CCN1CCN(c2cc3c(cc2F)c(=O)c(C(=O)O)cn3C2CC2)CC1 [Baytril]
- healing of visible ulcers [1]: failed to heal visible ulcers

Compound: O=C(O)CN(CCN(CC(=O)O)CC(=O)O)CC(=O)O [EDTA, ethylenediaminetetraacetate]
- MBC, Individually Administered ([2]; EDTA alone in 50 mM Tris): 250 mM
- MBC, Co-administered [2, 18]: 62.5 mM
- MBC, Individually Administered ([3]; EDTA alone in 50 mM Tris): 250 mM
- MBC, Co-administered [3, 18]: 20.0 mM
- MBC, Co-administered [4, 18]: 3.9 mM
- MIC, EDTA alone [5]: 15.6
- MIC, EDTA alone [6]: <0.49

Compound: CN[C@H](CC(C)C)C(=O)N[C@H]1C(=O)N[C@@H](CC(N)=O)C(=O)N[C@H]2C(=O)N[C@H]3C(=O)N[C@H](C(=O)N[C@H](C(=O)O)c4cc(O)cc(O)c4-c4cc3ccc4O)[C@H](O)c3ccc(c(Cl)c3)Oc3cc2cc(c3O[C@@H]2O[C@H](CO)[C@@H](O)[C@H](O)[C@H]2O[C@H]2C[C@](C)(N)[C@H](O)[C@H](C)O2)Oc2ccc(cc2Cl)[C@H]1O [Va, vancomycin]
- Antibiotic resistance profile [7]: R
- Antibiotic resistance profile [8]: S
- Antibiotic resistance profile [9]: R

Compound: cocamidopropyl betaine
- MBC [10]: 0.001x
- MIC [10]: 0.001x
- MBC [11]: 0.001x
- MIC [11]: 0.001x
- MBC [12]: 0.003x
- MIC [12]: 0.001x
- MBC [13]: 0.5x
- MIC [13]: 0.25x
- MBC [14]: 50% of stock solution
- MIC [14]: 25% of stock solution
- MBC [14, 19]: 0.5x
- MIC [14, 19]: 0.25x
- MBC [15]: 0.5x
- MIC [15]: 0.25x
- MBC [16]: 0.003x
- MIC [16]: 0.001x
- MBC [17]: 0.5x
- MIC [17]: 0.25x

Compound: gentamicin [GM]
- Antibiotic resistance profile [7]: I
- Antibiotic resistance profile [8]: S
- Antibiotic resistance profile [9]: R

Compound: neomycin
- Antibiotic resistance profile [7]: R
- MBC, Individually Administered ([2]; neomycin alone in 50 mM Tris): 25000 µg/mL
- MBC, Co-administered [2, 20]: 6250 µg/mL
- MBC, Individually Administered ([3]; neomycin alone in 50 mM Tris): 5000 µg/mL
- MBC, Co-administered [3, 20]: 40 µg/mL
- MBC, Co-administered [4, 20]: 1560 µg/mL
- Antibiotic resistance profile [8]: R
- Antibiotic resistance profile [9]: R

Compound: oxacillin/methicillin
- Antibiotic resistance profile [7]: R
- Antibiotic resistance profile [8]: R
- Antibiotic resistance profile [9]: R
